Results as given in PubChem BioAssay AID1963835 (Molecular Pharmacology Branch, DTP, NCI, 2024).

Test system: 699152-130-R-J1-PDC complex spheroid viability
Experiment: Anticancer human tumor 699152-130-R-J1-PDC patient-derived pancreatic carcinoma cell line growth inhibition [POLQ]
Details: for IC50: curve of first compound; for viability, T/C: stronger effect = lower value
In short: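 Patient-derived tumour cells were co-cultured with HUVEC and mesenchymal stem cells as multicellular spheroids at 37 °C. They were treated with POLQ inhibitors (novobiocin, ART-558, RP6685) alone or combined with other agents. Top concentrations were at or near clinical Cmax (otherwise 10 microM; SN-38 at 1 microM), decreasing in half-log steps.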

[1] = second compound 0.0316 µM, first compound 0.0316 µM
[2] = second compound 0.0316 µM, first compound 0.1 µM
[3] = second compound 0.0316 µM, first compound 0.316 µM
[4] = second compound 0.0316 µM, first compound 1 µM
[5] = second compound 0.0316 µM, first compound 3.16 µM
[6] = second compound 0.0316 µM, first compound 10 µM
[7] = second compound 0.1 µM, first compound 0.0316 µM
[8] = second compound 0.1 µM, first compound 0.1 µM
[9] = second compound 0.1 µM, first compound 0.316 µM
[10] = second compound 0.1 µM, first compound 1 µM
[11] = second compound 0.1 µM, first compound 3.16 µM
[12] = second compound 0.1 µM, first compound 10 µM
[13] = second compound 0.316 µM, first compound 0.0316 µM
[14] = second compound 0.316 µM, first compound 0.1 µM
[15] = second compound 0.316 µM, first compound 0.316 µM
[16] = second compound 0.316 µM, first compound 1 µM
[17] = second compound 0.316 µM, first compound 3.16 µM
[18] = second compound 0.316 µM, first compound 10 µM
[19] = second compound 1 µM, first compound 0.0316 µM
[20] = second compound 1 µM, first compound 0.1 µM
[21] = second compound 1 µM, first compound 0.316 µM
[22] = second compound 1 µM, first compound 1 µM
[23] = second compound 1 µM, first compound 3.16 µM
[24] = second compound 1 µM, first compound 10 µM
[25] = second compound 3.16 µM, first compound 0.0316 µM
[26] = second compound 3.16 µM, first compound 0.1 µM
[27] = second compound 3.16 µM, first compound 0.316 µM
[28] = second compound 3.16 µM, first compound 1 µM
[29] = second compound 3.16 µM, first compound 3.16 µM
[30] = second compound 3.16 µM, first compound 10 µM
[31] = second compound 10 µM, first compound 0.0316 µM
[32] = second compound 10 µM, first compound 0.1 µM
[33] = second compound 10 µM, first compound 0.316 µM
[34] = second compound 10 µM, first compound 1 µM
[35] = second compound 10 µM, first compound 3.16 µM
[36] = second compound 10 µM, first compound 10 µM
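Also: spheroids exposed to agents for 7 days before viability reading.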
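For viability, T/C in this document: percent of DMSO vehicle control viability so 100% = vehicle and 0% = no viable signal.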

`CCc1cc2c(N3CCc4c(cc(Cn5ccnc5)cc4-c4cn(C)nc4C(F)(F)F)C3=O)cc(C)nc2c(OC)n1` + Nc1ccc(C#CCN(C(=O)Cc2ncc(C(F)(F)F)cc2C(F)(F)F)c2ccc(F)cc2)nn1 was tested, and the IC50 (second compound 0.0316 µM) was > 10 µM, the IC50 (second compound 0.1 µM) was > 10 µM and the IC50 (second compound 0.316 µM) was > 10 µM. For the same molecule, the IC50 (second compound 1 µM) was > 10 µM, the IC50 (second compound 3.16 µM) was > 10 µM and the IC50 (second compound 10 µM) was > 10 µM. The viability, T/C [1] was 85.8%, the viability, T/C [2] was 89.8% and the viability, T/C [3] was 97.3%. It also gave a viability, T/C [4] of 101%, a viability, T/C [5] of 99.4% and a viability, T/C [6] of 106%. The viability, T/C [7] was 87.7%, the viability, T/C [8] was 88.8% and the viability, T/C [9] was 96.9%. For the same molecule, the viability, T/C [10] was 93.4%, the viability, T/C [11] was 100% and the viability, T/C [12] was 107%. It also gave a viability, T/C [13] of 89.5%, a viability, T/C [14] of 94.2% and a viability, T/C [15] of 101%. For the same molecule, the viability, T/C [16] was 89.7%, the viability, T/C [17] was 97% and the viability, T/C [18] was 101%. The viability, T/C [19] was 86.5%, the viability, T/C [20] was 93.6% and the viability, T/C [21] was 95.6%. For the same molecule, the viability, T/C [22] was 95.5%, the viability, T/C [23] was 100% and the viability, T/C [24] was 104%. The viability, T/C [25] was 105%, the viability, T/C [26] was 95.7% and the viability, T/C [27] was 102%. The viability, T/C [28] was 106%, the viability, T/C [29] was 107% and the viability, T/C [30] was 106%. It also gave a viability, T/C [31] of 99.8%, a viability, T/C [32] of 118% and a viability, T/C [33] of 110%. For the same molecule, the viability, T/C [34] was 107%, the viability, T/C [35] was 117% and the viability, T/C [36] was 115%.

For `COc1cc(C2c3cc4c(cc3C(OC3OC5COC(C)OC5C(O)C3O)C3COC(=O)C23)OCO4)cc(OC)c1O` (stereo unspecified) + Cc1cccc(N(C)C(=O)C2C(O)CCN2c2nc(C)cc(C(F)(F)F)c2C#N)c1, the IC50 (second compound 0.0316 µM) was 6.73 µM, the IC50 (second compound 0.1 µM) was > 10 µM and the IC50 (second compound 0.316 µM) was 7.65 µM. For the same molecule, the IC50 (second compound 1 µM) was > 10 µM, the IC50 (second compound 3.16 µM) was > 10 µM and the IC50 (second compound 10 µM) was > 10 µM. The viability, T/C [1] was 111%, the viability, T/C [2] was 108% and the viability, T/C [3] was 76.4%. It also gave a viability, T/C [4] of 72.2%, a viability, T/C [5] of 52.5% and a viability, T/C [6] of 47.6%. It also gave a viability, T/C [7] of 101%, a viability, T/C [8] of 84.6% and a viability, T/C [9] of 72.9%. The viability, T/C [10] was 72.8%, the viability, T/C [11] was 55% and the viability, T/C [12] was 50.8%. The viability, T/C [13] was 102%, the viability, T/C [14] was 96.3% and the viability, T/C [15] was 83.4%. The viability, T/C [16] was 74.2%, the viability, T/C [17] was 58.9% and the viability, T/C [18] was 47.2%. For the same molecule, the viability, T/C [19] was 112%, the viability, T/C [20] was 86.1% and the viability, T/C [21] was 81.9%. The viability, T/C [22] was 74.9%, the viability, T/C [23] was 63.7% and the viability, T/C [24] was 47.3%. The viability, T/C [25] was 98%, the viability, T/C [26] was 101% and the viability, T/C [27] was 71.8%. The viability, T/C [28] was 74.4%, the viability, T/C [29] was 62.2% and the viability, T/C [30] was 51.2%. It also gave a viability, T/C [31] of 101%, a viability, T/C [32] of 77.7% and a viability, T/C [33] of 70.6%. The viability, T/C [34] was 75.9%, the viability, T/C [35] was 71.1% and the viability, T/C [36] was 55.9%.

`CC(C)n1c(=O)n(C)c2cnc3cc(F)c(-c4ccc(OCCCN5CCCCC5)nc4)cc3c21` + Cc1cccc(N(C)C(=O)C2C(O)CCN2c2nc(C)cc(C(F)(F)F)c2C#N)c1 was tested, and the IC50 (second compound 0.0316 µM) was > 10 µM, the IC50 (second compound 0.1 µM) was > 10 µM and the IC50 (second compound 0.316 µM) was > 10 µM. The IC50 (second compound 1 µM) was > 10 µM, the IC50 (second compound 3.16 µM) was > 10 µM and the IC50 (second compound 10 µM) was > 10 µM. It also gave a viability, T/C [1] of 94.9%, a viability, T/C [2] of 98.5% and a viability, T/C [3] of 100%. For the same molecule, the viability, T/C [4] was 110%, the viability, T/C [5] was 107% and the viability, T/C [6] was 83.2%. It also gave a viability, T/C [7] of 97.3%, a viability, T/C [8] of 101% and a viability, T/C [9] of 112%. It also gave a viability, T/C [10] of 109%, a viability, T/C [11] of 104% and a viability, T/C [12] of 98.3%. For the same molecule, the viability, T/C [13] was 111%, the viability, T/C [14] was 94.2% and the viability, T/C [15] was 104%. For the same molecule, the viability, T/C [16] was 118%, the viability, T/C [17] was 114% and the viability, T/C [18] was 94.8%. It also gave a viability, T/C [19] of 113%, a viability, T/C [20] of 116% and a viability, T/C [21] of 98.7%. The viability, T/C [22] was 121%, the viability, T/C [23] was 113% and the viability, T/C [24] was 87.3%. It also gave a viability, T/C [25] of 104%, a viability, T/C [26] of 116% and a viability, T/C [27] of 103%. It also gave a viability, T/C [28] of 104%, a viability, T/C [29] of 112% and a viability, T/C [30] of 78.7%. For the same molecule, the viability, T/C [31] was 98.1%, the viability, T/C [32] was 84.4% and the viability, T/C [33] was 123%. For the same molecule, the viability, T/C [34] was 111%, the viability, T/C [35] was 106% and the viability, T/C [36] was 84.7%.
